# Measurements taken from PMC7402526, “An in vitro quantitative systems pharmacology approach for deconvolving mechanisms of drug-induced, multilineage cytopenias” (PLoS Computational Biology, 2020).
# Assays:
# [1] = tested on: total dead cells (totalDeadCells); assay: MLTA, total dead cells concentration-response; type: cell-based; settings: Homo sapiens, 144 h, 6 days, normalized to vehicle control, read-out: total_dead normalized cell count
# Method in brief: (§1)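 Freeze-thawed primary human bone marrow CD34+ cells in SFEM II with cytokine cocktail, drug added day 0, 6 days at 37°C, 5% CO2. Live/dead counts by 17-parameter flow cytometry with DAPI exclusion, bead-normalized, volume-corrected to cells/mL. Normalized per donor to mean of six vehicle wells; 2–7 donors pooled.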
# [2] = tested on: lymphocyte progenitors (LymP); assay: MLTA, LymP: concentration-response and QSP model fit; type: cell-based, human; settings: Homo sapiens, Lymphocyte, 144 h
# Method in brief: (§2)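 Values derive from fitting a QSP Emax model (EmaxT 0–2, above 1 denoting added cell killing) to vehicle-normalized lineage counts. Counts were obtained by 17-parameter flow after 6-day culture of human bone marrow CD34+ cells with test article.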
# [3] = tested on: multi-potent progenitors (MPPs); assay: MLTA, MPPs: concentration-response and QSP model fit; type: cell-based, human; settings: Homo sapiens, 144 h
# Method in brief: as §2
# [4] = tested on: total viable cells (totalViableCells); assay: MLTA, total live cells concentration-response; type: cell-based; settings: Homo sapiens, 144 h, 6 days, normalized to vehicle control, read-out: total_live normalized cell count
# Method in brief: as §1
# granulocytes (Gran-lin) = assay: MLTA, Gran: concentration-response and QSP model fit; type: cell-based, human; settings: Homo sapiens, 144 h
# Method in brief: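 Six-day flow cytometry counts, bead-normalized and expressed relative to the mean of six vehicle wells, underlie each value. Cells were primary human bone marrow CD34+ cells cultured in SFEM II with cytokines promoting multi-lineage differentiation and self-renewal.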
# [5] = tested on: granulocyte-macrophage progenitor (GMPs); assay: MLTA, GMPs: concentration-response and QSP model fit; type: cell-based, human; settings: Homo sapiens, 144 h
# Method in brief: as §2
# MK cells (MK-lin) = assay: MLTA, MK: concentration-response and QSP model fit; type: cell-based, human; settings: Homo sapiens, 144 h
# Method in brief: as §2
# [6] = tested on: late erythroid cells (Eryth II); assay: MLTA, ErythII: concentration-response and QSP model fit; type: cell-based, human; settings: Homo sapiens, 144 h
# Method in brief: as §2
# [7] = tested on: human bone marrow-derived CD34+ cells differentiated into multiple hematopoietic lineages; assay: MLTA, overall effects across hematopoietic lineages; type: cell-based; settings: QSP model fit; EmaxT > 1.0 = cell-killing
# Method in brief: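 Thawed primary human bone marrow CD34+ cells grown in SFEM II with a multi-lineage cytokine cocktail, drug added day 0, 6 days at 37°C, 5% CO2. Subsets counted by 17-parameter flow cytometry with TruCount beads, normalized to six vehicle wells per donor (2–7 donors); Emax model fitted per cell type.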
# [8] = QSP model fit of 6-day MLTA data
smiles,measurement,setting,value
CC(=O)c1c(C)c2cnc(Nc3ccc(N4CCNCC4)cn3)nc2n(C2CCCC2)c1=O [palbociclib],activity at 0.0002 µM,[1]; dose 0.2 nM,101%
same,activity at 0.001 µM,[1]; dose 1 nM,102%
same,activity at 0.005 µM,[1]; dose 5 nM,103%
same,activity at 0.025 µM,[1]; dose 25 nM,64.6%
same,activity at 0.1 µM,[1]; dose 100 nM,40.5%
same,activity at 0.5 µM,[1]; dose 500 nM,28.9%
same,activity at 2.5 µM,[1]; dose 2500 nM,22.7%
same,activity at 0.0002 µM,"[2]; dose 0.2 nM, 6 days, normalized to vehicle control, read-out: LymP normalized cell count",86.1%
same,activity at 0.001 µM,"[2]; dose 1 nM, 6 days, normalized to vehicle control, read-out: LymP normalized cell count",88%
same,activity at 0.005 µM,"[2]; dose 5 nM, 6 days, normalized to vehicle control, read-out: LymP normalized cell count",73.1%
same,activity at 0.025 µM,"[2]; dose 25 nM, 6 days, normalized to vehicle control, read-out: LymP normalized cell count",38%
same,activity at 0.1 µM,"[2]; dose 100 nM, 6 days, normalized to vehicle control, read-out: LymP normalized cell count",12.4%
same,activity at 0.5 µM,"[2]; dose 500 nM, 6 days, normalized to vehicle control, read-out: LymP normalized cell count",5.18%
same,activity at 2.5 µM,"[2]; dose 2500 nM, 6 days, normalized to vehicle control, read-out: LymP normalized cell count",4.62%
same,Emax,"[2]; parameter from QSP model fitting, read-out: Emax_drug_LymP",0.032%
same,activity at 0.0002 µM,"[3]; dose 0.2 nM, 6 days, normalized to vehicle control, read-out: MPPs normalized cell count",86.4%
same,activity at 0.001 µM,"[3]; dose 1 nM, 6 days, normalized to vehicle control, read-out: MPPs normalized cell count",88.4%
same,activity at 0.005 µM,"[3]; dose 5 nM, 6 days, normalized to vehicle control, read-out: MPPs normalized cell count",77.3%
same,activity at 0.025 µM,"[3]; dose 25 nM, 6 days, normalized to vehicle control, read-out: MPPs normalized cell count",45.6%
same,activity at 0.1 µM,"[3]; dose 100 nM, 6 days, normalized to vehicle control, read-out: MPPs normalized cell count",23.3%
same,activity at 0.5 µM,"[3]; dose 500 nM, 6 days, normalized to vehicle control, read-out: MPPs normalized cell count",11%
same,activity at 2.5 µM,"[3]; dose 2500 nM, 6 days, normalized to vehicle control, read-out: MPPs normalized cell count",5.77%
same,Emax,"[3]; parameter from QSP model fitting, read-out: Emax_drug_MPP",0.0264%
same,viability at 0.0002 µM,[4]; dose 0.2 nM,94.8%
same,viability at 0.001 µM,[4]; dose 1 nM,99.6%
same,viability at 0.005 µM,[4]; dose 5 nM,91.8%
same,viability at 0.025 µM,[4]; dose 25 nM,69.8%
same,viability at 0.1 µM,[4]; dose 100 nM,39.6%
same,viability at 0.5 µM,[4]; dose 500 nM,15.4%
same,viability at 2.5 µM,[4]; dose 2500 nM,6.06%
same,activity at 0.0002 µM,"granulocytes (Gran-lin); dose 0.2 nM, 6 days, normalized to vehicle control, read-out: Gran normalized cell count",94.7%
same,activity at 0.001 µM,"granulocytes (Gran-lin); dose 1 nM, 6 days, normalized to vehicle control, read-out: Gran normalized cell count",93.9%
same,activity at 0.005 µM,"granulocytes (Gran-lin); dose 5 nM, 6 days, normalized to vehicle control, read-out: Gran normalized cell count",88.2%
same,activity at 0.025 µM,"granulocytes (Gran-lin); dose 25 nM, 6 days, normalized to vehicle control, read-out: Gran normalized cell count",53.9%
same,activity at 0.1 µM,"granulocytes (Gran-lin); dose 100 nM, 6 days, normalized to vehicle control, read-out: Gran normalized cell count",21.5%
same,activity at 0.5 µM,"granulocytes (Gran-lin); dose 500 nM, 6 days, normalized to vehicle control, read-out: Gran normalized cell count",4.56%
same,activity at 2.5 µM,"granulocytes (Gran-lin); dose 2500 nM, 6 days, normalized to vehicle control, read-out: Gran normalized cell count",0.37%
same,Emax,"granulocytes (Gran-lin); parameter from QSP model fitting, read-out: Emax_drug_Gran",0.0335%
same,EC50,[5]; [8],54.6 nM
same,activity at 0.0002 µM,"[5]; dose 0.2 nM, 6 days, normalized to vehicle control, read-out: GMPs normalized cell count",92.3%
same,activity at 0.001 µM,"[5]; dose 1 nM, 6 days, normalized to vehicle control, read-out: GMPs normalized cell count",94.2%
same,activity at 0.005 µM,"[5]; dose 5 nM, 6 days, normalized to vehicle control, read-out: GMPs normalized cell count",92.5%
same,activity at 0.025 µM,"[5]; dose 25 nM, 6 days, normalized to vehicle control, read-out: GMPs normalized cell count",76.3%
same,activity at 0.1 µM,"[5]; dose 100 nM, 6 days, normalized to vehicle control, read-out: GMPs normalized cell count",53.9%
same,activity at 0.5 µM,"[5]; dose 500 nM, 6 days, normalized to vehicle control, read-out: GMPs normalized cell count",23.9%
same,activity at 2.5 µM,"[5]; dose 2500 nM, 6 days, normalized to vehicle control, read-out: GMPs normalized cell count",4.62%
same,EC50,MK cells (MK-lin); [8],759 nM
same,activity at 0.0002 µM,"MK cells (MK-lin); dose 0.2 nM, 6 days, normalized to vehicle control, read-out: MK normalized cell count",86%
same,activity at 0.001 µM,"MK cells (MK-lin); dose 1 nM, 6 days, normalized to vehicle control, read-out: MK normalized cell count",96.6%
same,activity at 0.005 µM,"MK cells (MK-lin); dose 5 nM, 6 days, normalized to vehicle control, read-out: MK normalized cell count",89.1%
same,activity at 0.025 µM,"MK cells (MK-lin); dose 25 nM, 6 days, normalized to vehicle control, read-out: MK normalized cell count",91.2%
same,activity at 0.1 µM,"MK cells (MK-lin); dose 100 nM, 6 days, normalized to vehicle control, read-out: MK normalized cell count",62.2%
same,activity at 0.5 µM,"MK cells (MK-lin); dose 500 nM, 6 days, normalized to vehicle control, read-out: MK normalized cell count",23.6%
same,activity at 2.5 µM,"MK cells (MK-lin); dose 2500 nM, 6 days, normalized to vehicle control, read-out: MK normalized cell count",7.89%
same,Emax,"MK cells (MK-lin); parameter from QSP model fitting, read-out: Emax_drug_MK",7.37%
same,EC50,"[6]; QSP model fit of 6-day MLTA data, read-out: EC50ErythII",99.5 nM
same,activity at 0.0002 µM,"[6]; dose 0.2 nM, 6 days, normalized to vehicle control, read-out: ErythII normalized cell count",89%
same,activity at 0.001 µM,"[6]; dose 1 nM, 6 days, normalized to vehicle control, read-out: ErythII normalized cell count",103%
same,activity at 0.005 µM,"[6]; dose 5 nM, 6 days, normalized to vehicle control, read-out: ErythII normalized cell count",99.1%
same,activity at 0.025 µM,"[6]; dose 25 nM, 6 days, normalized to vehicle control, read-out: ErythII normalized cell count",82.3%
same,activity at 0.1 µM,"[6]; dose 100 nM, 6 days, normalized to vehicle control, read-out: ErythII normalized cell count",56.9%
same,activity at 0.5 µM,"[6]; dose 500 nM, 6 days, normalized to vehicle control, read-out: ErythII normalized cell count",30.3%
same,activity at 2.5 µM,"[6]; dose 2500 nM, 6 days, normalized to vehicle control, read-out: ErythII normalized cell count",14.3%
same,Emax,"[6]; parameter from QSP model fitting, read-out: Emax_drug_ErythroidII",11.8%
same,EmaxT effects across cell types (overall statement),[7],anti-proliferation effects on essentially just the HSCs and GMPs
